{"source": "patent US20150133666A1", "about": "“TRITOQUALINE FOR USE IN THE TREATMENT OF CYSTIC FIBROSIS” (priority 2012, published 2015)", "key": {"histamine H4 receptor": {"target": "T1, histamine H4 receptor (Homo sapiens, UniProt Q9H3N8)", "T1 construct": "endogenous in cells; host or cells: CFU (colony-forming units) rich in H4 receptor", "T1 sequence (Q9H3N8 whole entry, species assumed)": "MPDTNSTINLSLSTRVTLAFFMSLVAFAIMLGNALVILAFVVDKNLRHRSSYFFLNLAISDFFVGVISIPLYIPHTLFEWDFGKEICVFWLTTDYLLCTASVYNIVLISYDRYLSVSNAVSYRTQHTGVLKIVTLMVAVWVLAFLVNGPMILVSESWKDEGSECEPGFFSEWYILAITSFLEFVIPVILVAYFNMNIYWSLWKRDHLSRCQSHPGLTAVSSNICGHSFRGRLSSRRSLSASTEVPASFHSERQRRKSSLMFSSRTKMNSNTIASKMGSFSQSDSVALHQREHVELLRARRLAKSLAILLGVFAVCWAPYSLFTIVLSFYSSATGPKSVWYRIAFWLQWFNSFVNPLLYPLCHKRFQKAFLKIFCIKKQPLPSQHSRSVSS", "test": "Inhibition of proliferation of CFU rich in H4 receptor (FIG. 4)", "format": "cell-based", "conditions": "for activity on CFU proliferation when using an anti H4: FIG. 4, with an anti H4"}, "[1]": {"conditions": "white powder; degrades into cotarnine and phthalic acid; cited from earlier work"}, "cystic fibrosis patient [2]": {"tested_on": "cystic fibrosis patient", "test": "Number of lung infections (superinfections) per year in patients with cystic fibrosis treated with tritoqualine", "format": "in vivo, human", "method": "(§1) This level of ventilatory flow signals a severe respiratory impairment. This patient also had 15 lung infections per year prior to treatment. After 6 months of treatment with tritoqualine at a dose of 200 mg/day, the ventilatory flows were again measured. At this second visit, the FEV1 parameter was measured at 0.50 L/s. […] During the third visit, months after the first visit, the flows were again measured.\nOver 12 months, the number of superinfections decreased from 15 to only 4 infections.\n(§2) This patient had had 8 lung infections per year prior to treatment. After 6 months of treatment at the daily dose of 400 mg of tritoqualine, the FEV1 parameter was measured again during a second consultation. The FEV1 parameter measured during this consultation went from 0.45 L/s to 0.50 L/s, or an improvement of 11.11% of the ventilatory flows.\nDuring the 12-month treatment with tritoqualine (400 mg daily), the patient benefited from a significant reduction in pulmonary infections, from 8 initially to only 3 infections after 12 months of treatment.\n(§3) Before therapy with tritoqualine, the FEV1 of the patient was measured at 0.70 L/s, or 63.64% of the normal expected value (based on age, sex, and size). This patient had had 12 pulmonary infections per year before the treatment. After a 6-month treatment with a daily dose of 300 mg of tritoqualine, the FEV1 parameter was measured at their second consultation at 1.0 L/s. This represents an improvement of 42.86% over the initial visit. (100*([…])/0.70). After 12 months of treatment, the FEV1 parameter measured during the third consultation was 1.20 L/s or 71.43% improvement compared to the initial visit. (100*(1.20-0.70)/0.70).\nThese decreased from 12 to 3 infections in one single year."}, "histidine decarboxylase": {"target": "T2, histidine decarboxylase (Homo sapiens, UniProt P19113)", "T2 sequence (P19113 1-662)": "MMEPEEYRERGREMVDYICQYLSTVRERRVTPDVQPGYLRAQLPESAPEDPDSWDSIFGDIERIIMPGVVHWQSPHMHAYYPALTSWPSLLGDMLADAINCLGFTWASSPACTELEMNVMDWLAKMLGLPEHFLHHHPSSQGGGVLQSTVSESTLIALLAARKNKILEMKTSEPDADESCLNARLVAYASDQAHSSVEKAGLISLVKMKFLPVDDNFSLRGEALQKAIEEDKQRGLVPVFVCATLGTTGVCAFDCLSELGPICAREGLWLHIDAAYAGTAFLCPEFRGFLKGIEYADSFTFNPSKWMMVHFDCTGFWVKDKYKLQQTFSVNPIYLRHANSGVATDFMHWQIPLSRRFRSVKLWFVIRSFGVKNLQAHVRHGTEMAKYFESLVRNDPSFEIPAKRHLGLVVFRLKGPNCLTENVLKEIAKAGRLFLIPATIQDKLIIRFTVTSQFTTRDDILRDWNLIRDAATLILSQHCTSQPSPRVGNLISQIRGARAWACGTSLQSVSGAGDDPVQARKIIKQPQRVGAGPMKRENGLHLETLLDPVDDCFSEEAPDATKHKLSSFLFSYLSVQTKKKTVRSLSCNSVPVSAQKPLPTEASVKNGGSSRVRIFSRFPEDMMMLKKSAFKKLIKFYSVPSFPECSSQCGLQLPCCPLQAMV", "conditions": "background statement; cited from earlier work"}, "cystic fibrosis patient [3]": {"tested_on": "cystic fibrosis patient", "test": "FEV1 (Forced Expiratory Volume in 1 second) in patients with cystic fibrosis treated with tritoqualine", "format": "in vivo, human", "method": "During the initial consultation, a treatment based on tritoqualine was started at a daily dose of 200 mg.\nBefore therapy with tritoqualine, the FEV1 (Forced Expiratory Volume in 1 second) of this young patient was 0.39 L/s or 55.71% of the normal expected value (based on age, sex, and size). The flow rate was measured with a Jaeger® MasterScreen® Body plethysmography apparatus.\nas §1\nBefore therapy with tritoqualine, the FEV1 of the patient was measured at 0.45 L/s or only 69.23% of the normal expected value (based on age, sex, and size).\nas §2\nA child with cystic fibrosis was treated during their first consultation with a dose of 300 mg of tritoqualine.\nas §3"}, "cystic fibrosis patients": {"tested_on": "cystic fibrosis patients", "conditions": "background statement; cited from earlier work"}}}
{"molecule": "NC(=NCc1ccc(Cl)cc1)SCCCc1cnc[nH]1", "note": "[Clobenpropit]", "values": [{"measurement": "activity on CFU proliferation when using an anti H4", "setting": "histamine H4 receptor", "result": "greatly reduced"}]}
{"molecule": "CCOc1c(N)c2c(c(OCC)c1OCC)C(C1c3c(cc4c(c3OC)OCO4)CCN1C)OC2=O", "note": "(centres unmarked) [tritoqualine, 7-Amino-4,5,6-triethoxy-3-(5,6,7,8-tetrahydro-4-methoxy-6-methyl-1,3-dioxolo[4,5-g]isoquinolin-5-yl) phthalide]", "values": [{"measurement": "sensitivity to light", "setting": "[1]", "result": "very sensitive to light"}, {"measurement": "proliferation of CFU rich in H4 receptor", "setting": "histamine H4 receptor; FIG. 4", "result": "capable of inhibiting the proliferation"}, {"measurement": "activity on CFU proliferation when using an anti H4", "setting": "histamine H4 receptor", "result": "greatly reduced"}, {"measurement": "number of superinfections", "setting": "cystic fibrosis patient [2]; Example 1: child, 200 mg/day, over 12 months, 15 per year prior to treatment", "result": 4, "unit": "infections"}, {"measurement": "reduction factor of number of infections", "setting": "cystic fibrosis patient [2]; Example 1: summary statement", "result": "divided by three"}, {"measurement": "number of pulmonary infections", "setting": "cystic fibrosis patient [2]; Example 2: adult, 400 mg/day, after 12 months, 8 initially", "result": 3, "unit": "infections"}, {"measurement": "number of pulmonary infections", "setting": "cystic fibrosis patient [2]; Example 3: child, 300 mg/day, in one year, 12 before treatment", "result": 3, "unit": "infections"}, {"measurement": "inhibitory action on histidine decarboxylase", "setting": "histidine decarboxylase", "result": "very low"}, {"measurement": "increase of FEV1 compared to initial flows", "setting": "cystic fibrosis patient [3]; Example 1: child, 200 mg/day, after 6 months", "result": 28.2, "unit": "%"}, {"measurement": "FEV1", "setting": "cystic fibrosis patient [3]; Example 1: child, 200 mg/day, after 6 months (second visit), before therapy 0.39 L/s", "result": 0.50, "unit": "L/s"}, {"measurement": "improvement of FEV1 compared to initial rates", "setting": "cystic fibrosis patient [3]; Example 1: child, 200 mg/day, third visit", "result": 58.7, "unit": "%"}, {"measurement": "FEV1", "setting": "cystic fibrosis patient [3]; Example 1: child, 200 mg/day, third visit, before therapy 0.39 L/s", "result": 0.62, "unit": "L/s"}, {"measurement": "increase of ventilatory flows", "setting": "cystic fibrosis patient [3]; Example 1: summary statement", "result": "more than 50%"}, {"measurement": "improvement of ventilatory flows (FEV1)", "setting": "cystic fibrosis patient [3]; Example 2: adult, 400 mg/day, after 6 months vs baseline", "result": 11.11, "unit": "%"}, {"measurement": "FEV1", "setting": "cystic fibrosis patient [3]; Example 2: adult, 400 mg/day, after 6 months, before therapy 0.45 L/s", "result": 0.50, "unit": "L/s"}, {"measurement": "increase in FEV1 compared to the initial visit", "setting": "cystic fibrosis patient [3]; Example 2: adult, 400 mg/day, after 12 months", "result": 28.89, "unit": "%"}, {"measurement": "FEV1", "setting": "cystic fibrosis patient [3]; Example 2: adult, 400 mg/day, after 12 months, before therapy 0.45 L/s", "result": 0.58, "unit": "L/s"}, {"measurement": "improvement of FEV1 over the initial visit", "setting": "cystic fibrosis patient [3]; Example 3: child, 300 mg/day, after 6 months", "result": 42.86, "unit": "%"}, {"measurement": "FEV1", "setting": "cystic fibrosis patient [3]; Example 3: child, 300 mg/day, after 6 months, before therapy 0.70 L/s", "result": 1.0, "unit": "L/s"}, {"measurement": "improvement of FEV1 compared to the initial visit", "setting": "cystic fibrosis patient [3]; Example 3: child, 300 mg/day, after 12 months", "result": 71.43, "unit": "%"}, {"measurement": "FEV1", "setting": "cystic fibrosis patient [3]; Example 3: child, 300 mg/day, after 12 months, before therapy 0.70 L/s", "result": 1.20, "unit": "L/s"}]}
{"molecule": "CC(C)(C)c1cc(C(C)(C)C)c(NC(=O)c2c[nH]c3ccccc3c2=O)cc1O", "note": "[Kalydeco]", "values": [{"measurement": "improvement in FEV1", "setting": "cystic fibrosis patients", "result": 10, "unit": "%"}]}
